In patent US20240325339A1, “MELATONIN AGONIST TREATMENT” (Vanda Pharmaceuticals Inc., priority 2006, published 2024):
“Also recorded” adds a separate entry of the source.

Tests used:
MT1R melatonin receptor = MT1R melatonin receptor (Homo sapiens, UniProt P48039); details: cited from earlier work
[1] = system: elderly patients with primary insomnia; details: 28-day Phase II study; cited from earlier work
MT2R melatonin receptor = target: T1, MT2R melatonin receptor (Homo sapiens, UniProt P49286); details: cited from earlier work
T1 sequence (P49286 1-362): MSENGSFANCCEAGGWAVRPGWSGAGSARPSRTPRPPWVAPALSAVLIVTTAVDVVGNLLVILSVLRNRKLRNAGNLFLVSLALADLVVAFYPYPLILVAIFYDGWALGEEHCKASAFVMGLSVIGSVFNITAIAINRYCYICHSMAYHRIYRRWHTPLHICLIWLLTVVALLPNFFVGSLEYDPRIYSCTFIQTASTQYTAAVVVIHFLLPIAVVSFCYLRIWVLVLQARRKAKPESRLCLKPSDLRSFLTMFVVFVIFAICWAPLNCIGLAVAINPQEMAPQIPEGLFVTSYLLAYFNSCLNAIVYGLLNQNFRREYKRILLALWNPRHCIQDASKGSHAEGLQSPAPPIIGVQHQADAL

[2] = Example 1 clinical trial: exposure (Cmax, AUC); type: in vivo, human
Description: (§1) A clinical trial was conducted to assess the safety of MA-1 as well as to determine the ability of MA-1 to shift the sleep/wake cycle following a 5-hour advance in bedtime. The study was a randomized, double-blind, parallel group, placebo-controlled study. It consisted of a 2-4-week outpatient screening period followed by an 8-day inpatient stay. After acclimating to the sleep lab, bedtime was advanced by 5 hours. The primary objectives of this study were to investigate the exposure-response to MA-1 on advancement of circadian release of endogenous melatonin rhythm as measured by dim light melatonin onset (DLMO, a biomarker of the sleep-wake cycle), to investigate the exposure-response to MA-1 on mean sleep efficiency parameters as measured by PSG, to investigate the exposure-response to MA-1 on objective neurobehavioral performance lapses during scheduled work-time as measured by computerized continuous performance testing, and to assess the safety and tolerability of MA-1. Forty-five healthy volunteers, men and women aged 18-50, were enrolled into this study. Thirty-nine subjects were randomized.
The differences in DLMO25% between the endpoint day (Nights 4, 5 and 6) and baseline (Night 3) were analyzed by comparing pairwise each dose group to placebo using a linear one-way analysis of variance (ANOVA) model using in SAS® (SAS® Institute, Cary, North Carolina). Means were calculated using the LS Means method in SAS®. Standard deviations were calculated using the Statistical Summary function in SAS®. Other statistical tests were also presented in graphics. These included: linear regression of response vs. exposure (dose, AUC, or Cmax), Kendall-tau nonparametric regression, and Spearman nonparametric regression.

Solubility = type: physicochemical
healthy volunteers [3] = assay: Example 1 clinical trial, 5-hour advance in bedtime: dim light melatonin onset (DLMO) from plasma melatonin; type: in vivo, human
Description: as §1
The study was designed to assess the safety and efficacy of four oral doses of MA-1 (10 mg, 20 mg, 50 mg and 100 mg) compared to matching placebo on circadian phase shift, sleep parameters during the major sleep episode, and subject alertness. After written informed consent was signed, subjects that met the inclusion/exclusion criteria at screening and baseline were enrolled into the 8-day in-patient portion of the study. All in-patient assessments were conducted in a time-isolation sleep lab in which no time cues were available to subjects. During the first three nights, subjects were given placebo 30 minutes prior to bedtime (11:00 PM) in a single-blind fashion. Baseline assessments for the efficacy parameters were measured during this period. At 5:00 PM on day 3, subjects started a 19 hour Pre-constant posture (CP) segment during which time the subjects remained seated in a semi-recumbent position and blood samples were collected approximately every hour from 7:00 AM to 12:00 PM. The purpose of the pre-CP segment is to provide a measure of each subject's circadian phase before the start of the night shift segment. On day 4, subjects were randomized to once daily treatment in one of the five treatment groups. In addition, subject sleep-wake routines were advanced 5 hours, such that subjects were required to sleep from approximately 6:00 PM-2:00 AM. […] Safety was assessed throughout the study, at the end of study (EOS) visit on day 8, and at the Follow-up visit. […]
To assess circadian sleep-wake cycles in the study, plasma melatonin levels were assessed. […] To assess the effects of MA-1 on the sleep-wake cycles, DLMO was monitored in subjects before and after treatment. […]

healthy volunteers [4] = assay: Example 1 clinical trial, 5-hour advance in bedtime: polysomnography (sleep efficiency, sleep latency, WASO, sleep architecture); details: human, in vivo
Description: as §1, with “Thirty-nine subjects were randomized.” left out
The study was designed to assess the safety and efficacy of four oral doses of MA-1 (10 mg, 20 mg, 50 mg and 100 mg) compared to matching placebo on circadian phase shift, sleep parameters during the major sleep episode, and subject alertness. […] Baseline assessments for the efficacy parameters were measured during this period. […]

[5] = system: healthy male and female subjects with induced transient insomnia; assay: Example 2 study of single oral doses in induced transient insomnia: polysomnography; type: in vivo, human
Description: (§2) A multi-center, randomized, double-blind, placebo-controlled, parallel-group study was conducted to investigate the efficacy and safety of single oral doses of VEC-162 (20, 50, and 100 mg) and matching placebo in healthy male and female subjects with induced transient insomnia. Approximately four hundred subjects were randomized in approximately a 1:1:1:1 ratio to the treatment groups.
(§3) In general, a screening period began 14 to 35 days prior to the start of the evaluation period, which was Day 1. Prior to Day 1, subjects were asked to increase their sleep time to 9 hours per night. Drug, or placebo, was administered on Night 1, approximately 0.5 hour prior to lights off.
The primary efficacy variable was LPS. LPS is defined as the length of time elapsed between lights off and onset of persistent sleep. In this trial, persistent sleep is defined as the point at which 10 minutes of uninterrupted sleep has begun. Sleep was determined on the basis of polysomnography (PSG).
Secondary efficacy parameters included the following: • Wake After Sleep Onset (WASO): WASO is defined as the time spent awake between onset of sleep and Lights On during Night 1, determined by PSG. • Latency to Non-Awake (LNA): LNA is defined as the number of minutes to reach any stage of sleep. • Total Sleep Time (TST): TST is defined as the number of minutes spent asleep during the entire time in bed.

[6] = 50 mg; cited from earlier work
[7] = system: healthy male and female subjects with induced transient insomnia; assay: Example 2 study: tolerability; type: in vivo, human; details: single oral doses 20, 50 and 100 mg
Description: as §2, §3

healthy volunteers [8] = details: cited from earlier work
[9] = system: preclinical models of acute phase-shifting and chronic re-entrainment; details: cited from earlier work

Chain of MT1R melatonin receptor (P48039 whole entry): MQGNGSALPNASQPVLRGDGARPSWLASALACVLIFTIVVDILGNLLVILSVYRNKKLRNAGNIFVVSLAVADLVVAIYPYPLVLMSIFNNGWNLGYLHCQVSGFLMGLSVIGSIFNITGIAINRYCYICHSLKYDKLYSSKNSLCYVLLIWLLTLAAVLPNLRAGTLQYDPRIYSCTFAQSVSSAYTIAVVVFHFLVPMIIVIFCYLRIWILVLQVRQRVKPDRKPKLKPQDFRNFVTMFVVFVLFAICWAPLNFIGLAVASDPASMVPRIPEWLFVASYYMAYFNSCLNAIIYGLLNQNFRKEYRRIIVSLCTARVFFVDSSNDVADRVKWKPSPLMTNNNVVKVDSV

CCC(=O)NC[C@@H]1C[C@H]1c1cccc2c1CCO2 [MA-1, (1R-trans)-N-[[2-(2,3-dihydro-4-benzofuranyl)cyclopropyl]methyl]propanamide]
Agonist activity at MT1R (MT1R melatonin receptor): specific and potent agonist
Sleep latency and number of nocturnal awakenings versus placebo [1]: did not differentiate from placebo
Agonist activity at MT2R (MT2R melatonin receptor): specific and potent agonist
Exposure levels: effect of covariates ([2]; human, in vivo): not affected by age, weight, height, gender, creatinine clearance, or ALT baseline levels
AUC versus dose ([2]; oral doses 10-100 mg): increased approximately proportional to dose
Cmax versus dose ([2]; oral doses 10-100 mg): increased in a manner approximately proportional to the dose
Effect of pH on aqueous solubility (Solubility): practically unaffected by pH
Change in DLMO25%, LOQ5 between Night 4 and Night 3 (healthy volunteers [3]; 10 mg oral, N = 8, mean): 0.18 h
Change in DLMO25%, LOQ5 between Night 4 and Night 3 (healthy volunteers [3]; 20 mg oral, N = 7, mean): -1.14 h
Change in DLMO25%, LOQ5 between Night 4 and Night 3 (healthy volunteers [3]; 50 mg oral, N = 4, mean): -0.50 h
Change in DLMO25%, LOQ5 between Night 4 and Night 3 (healthy volunteers [3]; 100 mg oral, N = 5, mean ± SD): -2.74 ± 1.95 h
Percentage of time in each sleep stage between Night 4 and Night 2 (healthy volunteers [4]): did not change
Efficacy compared with 100 mg ([5]; 20 mg single oral dose): comparable or superior to 100 mg
Efficacy compared with 100 mg ([5]; 50 mg single oral dose): more efficacious than 100 mg
Shift of circadian rhythms [6]: consistently shifted circadian rhythms
Tolerability [7]: well-tolerated at all doses
Tolerability, multiple doses (healthy volunteers [8]; multiple doses up to 150 mg, up to 28 days): safety and tolerability of MA-1 at doses up to 150 mg has been demonstrated; also recorded: well-tolerated
Tolerability, single doses (healthy volunteers [8]; single oral doses up to 300 mg, healthy volunteers): safe and well tolerated
Chronobiotic activity [9]: potent chronobiotic activity
